In patent publication US10105425B2, “Isolated donor MHC-derived peptide and uses thereof” (INSERM (INSTITUT NATIONAL DE LA SANTÉ ET DE LA RECHERCHE …, priority 2014, dated 2018):

Tests used:
[1] = test system: CD8^+CD40Ig Tregs; experiment: MLR coculture: CD25 activation of CD8+CD40Ig Tregs with syngeneic pDCs and allogeneic peptides; assay type: cell-based, rat; details: for upregulation of CD25 expression, fold vs. no peptide: 6 days culture, matured syngeneic pDCs, 120 μg/ml peptide
Method: (§1) For MLR coculture assays, pDCs from LEW.1A naive rats (1.25×10^4 cells), syngeneic CD8^+CD40Ig Tregs (5×10^4 cells) and 120 μg/ml of allogeneic peptides were plated in triplicate in 200 μl of complete RPMI-1640 medium in round-bottom 96 wells plates for 6 days at 37° C., 5% CO2. pDCs were matured with 0.5 μM of CpG ODN 1826.
(§2) Proliferation of CFSE-labeled naive CD4^+CD25^− T cells and phenotype of CD8^+CD45RC^low Tregs were analyzed by flow cytometry on a FACSCanto II cytometer (BD Biosciences, Mountain View, Calif.) after gating on TCR^+CD4^+ cells or TCR^+CD8^+ cells among live cells (DAPI negative).
For extracellular staining, cells were stained with the following mAbs: anti-TCRαβ (R73, Alexa Fluor 647-conjugated), anti-CD8α (OX8, PE-Cy7-conjugated, ebiosciences), anti-CD4 (W3.25, PE-Cy7-conjugated), anti-CD45RC (OX22, FITC-conjugated), anti-CD28 (JJ319, biotin-labeled), anti-CD71 (OX26, biotin-labeled), anti-mouse Vb11 (KT11, biotin-labeled, AbD Serotec) anti-CD25 (OX39, biotin-labeled) and anti-MHC-II (OX6, biotin-labeled).
(§3) All biotinylated mAbs were visualized using Streptavidin-PerCP.Cy5.5 (BD Biosciences). A FACSCanto II cytofluorimeter (BD Biosciences, Mountain View, Calif.) was used to measure fluorescence, and data were analyzed using FlowJo software (Tree Star, Inc. USA, version 7.6.5). Cells were first gated by their morphology and dead cells excluded by selecting DAPI negative viable cells.

[2] = test system: CD8^+CD40Ig Tregs and pDCs; experiment: Cytokine ELISA in coculture supernatants after peptide stimulation; assay type: cell-based, rat; details: 6 days peptide stimulation with pDCs, supernatant
Method: as §1
IFNγ, IL-10 were measured in coculture supernatants using ELISA from BD Biosciences OptEIA, IL-12 and TGFβ using ELISA from Invitrogen and R&D System respectively.

[3] = test system: CD4^+CD25^− T cells; experiment: Direct MLR suppressive assay (CFSE proliferation); assay type: cell-based, rat
Method: For direct MLR suppressive assays, sorted CFSE-labeled CD4^+CD25^− T cells from LEW.1A origin (5×10^4 cells) and allogeneic pDCs isolated from donor LEW.1W animals (1.25×10^4 cells) were plated in triplicate for 6 days in a final volume of 200 μl of completed RPMI-1640 medium in round-bottom 96 wells plates with FACS-sorted freshly purified naive CD8^+CD45RC^low Treg cells, peptide-expanded CD8^+CD40Ig Treg cells (5×10^4 cells), Du51 tetramer^+ or ^− CD8^+CD40Ig Tregs. For indirect MLR suppressive assay, splenocytes isolated from donor LEW.1W animals were frozen-thawed to induce apoptosis. Apoptotic cells were then cultured overnight with pDCs isolated from recipient LEW.1A animals (8:1 ratio) at 0.65×10^6 pDCs/mL. Alloantigens-loaded pDCs were finally washed and plated as described before for the direct MLR.
as §2

[4] = test system: heart allograft in LEW.1A recipients; experiment: Cardiac allotransplantation with in vivo peptide treatment; set-up: species or system rat; details: for allograft survival: five i.v injections of 500 μg peptide, LEW.1W into LEW.1A, n=4
Method: Allotransplantations of heart were performed between whole MHC incompatible LEW.1W (RT1.A^u as donors) and LEW.1A (RT1.A^a as recipients) male rats as previously described (5). The experiments were approved by the regional ethical committee for animal experimentation.
16-mer peptides were dissolved in 0.4% DMSO/PBS before injection. For the first protocol, single doses of peptide (500 μg/injection) were injected i.v at different time points before and after transplantation at day −6, −3, 0 +3 and +7 into grafted LEW.1A recipients. In the second protocol, mini osmotic pumps (ALZET, Cupertino, Calif., USA) were implanted intraperitoneally (i.p) in recipients and delivered continuously either 20.83 or 41.66 μg/hour of 16-mer peptides for 14 days. A first pump was implanted on day −7 before transplantation and was replaced by a second one at day +7, allowing delivery of 14 or 28 mg of peptide per animal for 28 consecutive days. A depleting anti-CD8α mAb (OX8, IgG1, 3 mg/kg) or an anti-MHC class Ia and Ib mAb (OX18, 3 mg/kg) were injected i.p. twice a week from day −7 until rejection. Allografts were monitored daily by palpation and allograft rejection was defined as complete cessation of palpable heart beat.

[5] = test system: cardiac grafts; experiment: Morphometric analysis of cardiac grafts (chronic rejection); assay type: in vivo, rat; details: long-term surviving Du51-treated recipients
Method: The upper third of the graft was fixed in paraformaldehyde and embedded in paraffin. Five μm coronal sections were stained with hematoxylin-eosine-safron. Tissues were analyzed by a pathologist (K.R.) blinded to the groups and chronic rejection was evaluated as previously described (63).

[6] = test system: donor-specific alloantibodies; experiment: Donor specific alloantibody detection by cytofluorimetry; assay type: in vivo, rat; details: long-term surviving Du51-treated recipients vs untreated or early rejecting
Method: Alloantibodies were analyzed by cytofluorimetry as described elsewhere (28). Briefly, after digestion by collagenase D and red blood cell lysis, allogeneic spleen cells were incubated with diluted (1/8) heat-inactivated serum, and then with FITC-conjugated goat anti-rat IgG antibodies (H+L chain specific) (Jackson Laboratories), a mouse anti-rat IgG1 MAb (MCA 194, Serotec), IgG2a (MCA 278, Serotec) or IgG2b (MCA 195, Serotec). […] Cells were analyzed using a FACS Canto II cytofluorimeter (BD Biosciences, Mountain View, Calif.) and the results were expressed as mean channel fluorescence for each serum.

[7] = test system: CD8^+CD45RC^low Tregs; experiment: Spleen cell populations by flow cytometry after peptide treatment; assay type: in vivo, rat; details: long-term surviving Du51-treated recipients
Method: as §3
Tetramerization of RT1.A^a/Du51 was performed at room temperature by addition of streptavidin-PE (Jackson ImmunoResearch) or streptavidin-APC (BD Biosciences) at a 4:1-molar ratio, in four equal aliquots added at 15-min intervals. Likewise, the control tetramer RT1.A^a/MTF-E (ILFPSSERLISNR) was conjugated to streptavidin-BV421 (Biolegend) and represented 1.6+/−0.7% of non-specific staining among Du51-specific cells. These three reagents were mixed and added to plated cells at 10 μg/mL for 1 hour at 4° C. Cells were further stained for CD8 and CD45RC and fluorescence was analyzed on a FACSCanto II cytometer (BD Biosciences, Mountain View, Calif.). Cells were first gated by their morphology and dead cells excluded by selecting DAPI negative cells.

[8] = test system: CD4^+ and CD8^+ T cells isolated from rejected untreated animals; details: unmodified LEW.1A recipients, LEW.1W into LEW.1A; cited from earlier work
[9] = test system: heart allograft in irradiated LEW.1A recipients; experiment: Adoptive transfer of splenocytes from Du51-treated long-surviving recipients
Description: Total splenocytes (1.5·10^8 cells) were adoptively transferred i.v. the day before heart transplantation into naive LEW-1A recipients that had received 4.5 Gy of whole-body irradiation the same day. Recipients received splenocytes from Du51-treated rats (defined as 1st spl-transferred) or from naive rats (naive spl-transferred) or no cells (untreated irradiated).

[10] = after 6 days of peptide stimulation

NREEYARFDSDVGEYR (Synthetic Dominant peptide Du51)
upregulation of CD25 expression, fold vs. no peptide [1]: 2.07±0.18 fold | CD28 expression [1, 10]: upregulation | CD71 expression [1, 10]: upregulation | Foxp3 expression [1, 10]: no modification | MHC class II expression [1, 10]: upregulation | IFNγ expression [2]: significant increased expression | IL-10 expression [2]: no modification | IL-12 production [2]: decreased | TGFβ expression [2]: no modification | ex vivo suppressive activity of peptide-induced CD8+CD45RClow Tregs ([3]; Tregs from Du51-treated recipients): efficiently inhibit effector CD4^+ T cell proliferation | proliferation of effector T cells with peptide-stimulated Tregs ([3]; Tregs stimulated 6 days with peptide, compared to non-activating peptide): significant inhibition | allograft survival [4]: 9.5 days | indefinite allograft survival ([4]; i.p. mini-osmotic pumps 20.8 μg peptide per hour for 28 days from day -7): 25% | indefinite allograft survival, recipients ([4]; osmotic pump 41.6 μg peptide per hour, LEW.1W donor hearts): 80% | rejection of Brown Norway (BN) third party grafts, day after transplantation ([4]; osmotic pump 41.6 μg per hour, BN/LEW.1A): 7 days | signs of chronic rejection in graft [5]: no signs of chronic rejection | total IgG, IgG1, IgG2a and IgG2b alloantibodies production [6]: total inhibition | percentage and absolute number of total CD8+ T cells, in particular CD8+CD45RClow Tregs in spleen [7]: trend for an increase | tetramer-positive Du51-specific Tregs in spleen [7]: trend for an increase | involvement in acute rejection of grafts [8]: not involved in acute rejection | recipients with significant prolongation of allograft survival ([9]; 150·10^6 splenocytes from recipients treated with 1 mg/day Du51, irradiated secondary recipients): 50% | anatomopathological status of graft ([9]; first adoptively transferred long term recipients): complete absence of vascular lesions and obstructions | total IgG, IgG1 and IgG2b alloantibodies production ([9]; first adoptively transferred long-term recipients vs untreated): total inhibition

REEYARFDSDVGEYR (Synthetic 15-mer peptide 51-18)
upregulation of CD25 expression, fold vs. no peptide [1]: 2.04±0.3 fold | activation / recognition by CD8+CD40Ig Tregs (CD25), in words ([1]; coculture with matured syngeneic pDCs, 6 days): not significantly different from that induced by Du51

YLRYDSDVGEYRAVTE [Bu31, sub-dominant peptide from donor MHC class II RT1.B^u]
upregulation of CD25 expression, fold vs. no peptide [1]: 1.67±0.09 fold | allograft survival [4]: 11 days
